Patent EP3722296B1, “DIHYDRONAPHTHYRIDINES AND RELATED COMPOUNDS USEFUL AS KINASE INHIBITORS FOR THE TREATMENT OF PROLIFERATIVE DISEASES” (Deciphera Pharmaceuticals, LLC, priority 2012, dated 2013)
pIC50: −log10 of the molar value.

Assays:
[1] = tested on: Phospho-KIT (Tyr719); experiment: GIST48 KIT Western Blot; type: cell-based; conditions: GIST48 cells, 4 hours, serum-free medium; read-out: pKIT suppression by western blot analysi GIST48
How it was run: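 Phospho-KIT (Tyr719) was immunoblotted on PVDF and imaged in fluorescence mode after ECL Plus, with stripping and reprobing for total KIT. IC50 values were derived from the blot signals.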

[2] = target: T1, c-KIT D816V kinase (Homo sapiens, UniProt P10721, D816V); experiment: c-KIT D816V kinase Assay; type: biochemical; conditions: enzymatic assay, ATP 200 uM
T1 construct: residues T544-V976 with N-terminal GST fusion; purchased deCODE Biostructures
How it was run: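 Coupled assay in which NADH oxidation was tracked as decreasing absorbance at 340 nm, continuously for 5 hours at 30 °C after adding serially diluted compound. Enzyme: cKit residues T544-V976 with N-terminal tag, GST fusion and TEV cleavage site.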

[3] = target: c-KIT kinase (Homo sapiens, UniProt P10721); experiment: c-KIT kinase Assay; type: biochemical; set-up: cKIT residues T544-V976; GST (N); TEV cleavage site (internal); purchased deCODE Biostructures; conditions: enzymatic assay, ATP 200 µM; read-out: KIT (wt) IC50
How it was run: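 This continuous spectrophotometric assay tracked c-KIT kinase turnover through NADH consumption at 340 nm, recorded for 2 hours at 30 °C. The enzyme construct from deCODE Biostructures carried an N-terminal tag, a GST-fusion sequence and a TEV cleavage site. Percent inhibition came from reaction rates over 0 to 1 h relative to a no-compound control, and IC50 values were derived with GraphPad Prism.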

[4] = target: T2, c-KIT D816H kinase (Homo sapiens, UniProt P10721, D816H); experiment: c-KIT D816H Kinase Assay; type: biochemical; conditions: enzymatic assay, ATP 200 µM
T2 construct: The construct contains residues T544-V976 of cKit; GST (N); TEV cleavage site (internal); purchased deCODE Biostructures
How it was run: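 Mutant cKit enzyme, expressed as a GST-fusion construct carrying an N-terminal tag and TEV site, was mixed with serially diluted compound to start reactions. Activity tracked via NADH consumption, read continuously at 340 nm over 6 hours at 30 °C.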

[5] = target: T3, c-KIT V654A kinase (Homo sapiens, UniProt P10721, V654A); experiment: c-KIT V654A Kinase Assay; type: biochemical; conditions: enzymatic assay, ATP 200 µM
T3 construct: residues T544-V976 with N-terminal GST fusion; purchased deCODE Biostructures
How it was run: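 Kinase activity tracked by coupled NADH consumption, monitored continuously at 340 nm over 6 h at 30 °C after serially diluted compound was mixed in to start inhibition. Enzyme used was a GST-fused, N-terminally tagged cKIT T544–V976 construct with a TEV cleavage site.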

[6] = target: T4, c-KIT T670I kinase (Homo sapiens, UniProt P10721, T670I); experiment: c-KIT T670I kinase assay; type: biochemical; conditions: enzymatic assay
T4 construct: The construct contains residues T544-V976 of cKit; GST (N); TEV cleavage site (internal); purchased deCODE Biostructures
How it was run: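 Enzyme: GST-fused, N-terminally tagged cKit bearing T670I, with TEV cleavage site. Reaction started by mixing compound dilutions with reaction mix; activity read continuously over 5 h at 30 °C as loss of 340 nm absorbance from NADH consumption.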

T4 sequence (P10721 544-976 T670I): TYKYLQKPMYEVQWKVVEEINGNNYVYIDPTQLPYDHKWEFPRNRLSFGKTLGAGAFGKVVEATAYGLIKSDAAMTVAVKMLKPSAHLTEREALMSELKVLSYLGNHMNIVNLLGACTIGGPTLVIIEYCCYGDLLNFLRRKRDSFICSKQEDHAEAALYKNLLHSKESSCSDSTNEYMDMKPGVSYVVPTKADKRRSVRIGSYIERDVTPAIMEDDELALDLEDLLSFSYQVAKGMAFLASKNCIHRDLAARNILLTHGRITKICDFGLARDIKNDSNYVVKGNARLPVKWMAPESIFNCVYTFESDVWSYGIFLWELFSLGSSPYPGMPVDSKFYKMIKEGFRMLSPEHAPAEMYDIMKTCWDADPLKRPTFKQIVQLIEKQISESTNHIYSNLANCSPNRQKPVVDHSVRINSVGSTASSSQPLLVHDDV
T2 sequence (P10721 544-976 D816H): as the sequence (P10721 544-976 T670I) above, with I127T, D273H counted along it
T1 sequence (P10721 544-976 D816V): as the sequence (P10721 544-976 T670I) above, with I127T, D273V counted along it
T3 sequence (P10721 544-976 V654A): as the sequence (P10721 544-976 T670I) above, with V111A, I127T counted along it
c-KIT kinase, sequence (P10721 544-976): as the sequence (P10721 544-976 T670I) above, with I127T counted along it

Compound	pIC50 [1]	pIC50 [2]	pIC50 [3]	pIC50 [4]	pIC50 [5]	pIC50 [6]
CCn1c(=O)c(-c2cc(NC(=O)Nc3ccccc3)c(F)cc2C)cc2cnc(NC)cc21 [Example 23, 1-(5-(1-ethyl-7-(methylamino)-2-oxo-1,2-dihydro-1,6-naphthyridin-3-yl)-2-fluoro-4-methylphenyl)-3-phenylurea]	6.00 to 7.00	7.00 to 8.00	> 8.00	7.00 to 8.00	> 8.00	7.00 to 8.00
CCn1c(=O)c(-c2cc(NC(=O)Nc3ccccc3)c(F)cc2Cl)cc2cnc(NC)cc21 [Example 3, 1-(4-chloro-5-(1-ethyl-7-(methylamino)-2-oxo-1,2-dihydro-1,6-naphthyridin-3-yl)-2-fluorophenyl)-3-phenylurea]	6.00 to 7.00	7.00 to 8.00	> 8.00	> 8.00	> 8.00	7.00 to 8.00
CCn1c(=O)c(-c2cc(NC(=O)Nc3cccc(F)c3)c(F)cc2Cl)cc2cnc(N)cc21 [Example 20, 1-(5-(7-amino-1-ethyl-2-oxo-1,2-dihydro-1,6-naphthyridin-3-yl)-4-chloro-2-fluorophenyl)-3-(3-fluorophenyl)urea]	6.00 to 7.00	> 8.00	> 8.00	> 8.00	7.00 to 8.00	> 8.00
CCn1c(=O)c(-c2cc(NC(=O)Nc3cccc(F)c3)c(F)cc2Cl)cc2cnc(NCCOC)cc21 [Example 28, 1-(4-chloro-5-(1-ethyl-7-(2-methoxyethylamino)-2-oxo-1,2-dihydro-1,6-naphthyridin-3-yl)-2-fluorophenyl)-3-(3-fluorophenyl)urea]	6.00 to 7.00	7.00 to 8.00	7.00 to 8.00	7.00 to 8.00	> 8.00	7.00 to 8.00
CCn1c(=O)c(-c2cc(NC(=O)Nc3cccc(F)c3)c(F)cc2C)cc2cnc(N)cc21 [Example 58, 1-(5-(7-amino-1-ethyl-2-oxo-1,2-dihydro-1,6-naphthyridin-3-yl)-2-fluoro-4-methylphenyl)-3-(3-fluorophenyl)urea]	6.00 to 7.00	7.00 to 8.00	> 8.00	> 8.00	> 8.00	7.00 to 8.00
CCn1c(=O)c(-c2cc(NC(=O)Nc3ccccc3)c(F)cc2C)cc2cnc(NC(=O)N(C)C)cc21 [Example 101, 3-(1-ethyl-3-(4-fluoro-2-methyl-5-(3-phenylureido)phenyl)-2-oxo-1,2-dihydro-1,6-naphthyridin-7-yl)-1,1-dimethylurea]	< 6.00	7.00 to 8.00	7.00 to 8.00	7.00 to 8.00	7.00 to 8.00	7.00 to 8.00
CCn1c(=O)c(-c2cc(NC(=O)Nc3cc(F)ccc3F)c(F)cc2C)cc2cnc(NC)cc21 [Example 61, 1-(2,5-difluorophenyl)-3-(5-(1-ethyl-7-(methylamino)-2-oxo-1,2-dihydro-1,6-naphthyridin-3-yl)-2-fluoro-4-methylphenyl)urea]	< 6.00	7.00 to 8.00	> 8.00	6.00 to 7.00	7.00 to 8.00	> 8.00

Second part, the compound after the results:

pIC50 [1]	pIC50 [2]	pIC50 [3]	pIC50 [4]	pIC50 [5]	pIC50 [6]	Compound
7.00 to 8.00	7.00 to 8.00	> 8.00	7.00 to 8.00	7.00 to 8.00	7.00 to 8.00	CCn1c(=O)c(-c2cc(NC(=O)Nc3ccccc3)c(F)cc2Cl)cc2cnc(NCCOC)cc21 [Example 27, 1-(4-chloro-5-(1-ethyl-7-(2-methoxyethylamino)-2-oxo-1,2-dihydro-1,6-naphthyridin-3-yl)-2-fluorophenyl)-3-phenylurea]
7.00 to 8.00	7.00 to 8.00	> 8.00	> 8.00	7.00 to 8.00	7.00 to 8.00	CCn1c(=O)c(-c2cc(NC(=O)Nc3ccccc3)c(F)cc2Cl)cc2cnc(NC(=O)N3CC(O)C3)cc21 [Example 81, N-(3-(2-chloro-4-fluoro-5-(3-phenylureido)phenyl)-1-ethyl-2-oxo-1,2-dihydro-1,6-naphthyridin-7-yl)-3-hydroxyazetidine-1-carboxamide]
7.00 to 8.00	> 8.00	> 8.00	7.00 to 8.00	7.00 to 8.00	6.00 to 7.00	CNc1cc2c(cn1)cc(-c1cc(NC(=O)Nc3cccc(F)c3)c(F)cc1Cl)c(=O)n2C(C)C [Example 77, 1-(4-chloro-2-fluoro-5-(1-isopropyl-7-(methylamino)-2-oxo-1,2-dihydro-1,6-naphthyridin-3-yl)phenyl)-3-(3-fluorophenyl)urea]
7.00 to 8.00	7.00 to 8.00	7.00 to 8.00	7.00 to 8.00	7.00 to 8.00	7.00 to 8.00	CCn1c(=O)c(-c2cc(NC(=O)Nc3csc4ccccc34)c(F)cc2C)cc2cnc(NC)cc21 [Example 59, 1-(benzo[b]thiophen-3-yl)-3-(5-(1-ethyl-7-(methylamino)-2-oxo-1,2-dihydro-1,6-naphthyridin-3-yl)-2-fluoro-4-methylphenyl)urea]
